Measurements published in patent publication US20060167229A1, “Biologically active peptide conjugates” (priority 2002, published 2006).
Marks after values point to notes of the source that are not given here. Ends that are not written are not given here.

Assays:
[1] = tested on: Duck Hepatitis B Virus (DHBV); assay: Chongqing duck hepatitis B model, serum DHBV DNA by dot-blot hybridization; type: in vivo, Chongqing ducks
Method: Chongqing duck hepatitis B model was set up and treated with peptides by intraperitoneal injection (50 μg/kg/day, once per day) for 4 weeks. The serum level of DHBV DNA was analyzed by serum dot-blot hybridization. Lamivudine and normal saline treatment was used as positive and negative control respectively. […] It is concluded that CMS001 at suitable dosage level can be used as a part, or on its own, for viral hepatitis infection management. One-day old Chongqing ducks were inoculated with 0.1 ml stock serum positive of Duck Hepatitis B Virus (DHBV) DNA (5×10^7 copy/ml) by intraperitoneal injection. One week later, blood samples were collected from the external jugular vein and infection was confirmed by dot-blot hybridization with DHBV DNA probe labeled with digoxin^[2]. The ducks were breed to 2 weeks old for entrance into the study. […] Treatment lasted for 4 weeks and observation continued for another one week after termination of treatment. 1 ml blood samples were drawn from the external jugular vein of the ducks on days 0, 7, 14, 21, 28, and 35 when treatment started. Sera of the blood samples were isolated immediately^[3] and stored at −20° C. until analysis. 4. Serum DHBV DNA Level Determinations DHBV DNA probe was fluorescent labeled according to the labeling kit protocol from the kit manufacturer (Amersham Pharmacia Biotech Co.). 40 μl duck sera were dot-blotted (1 duplicated dot per sample) onto nitro-cellulose membrane and hybridized with fluorescent-labeled DHBV DNA probe for quantitation^[2]. After completion of hybridization, the blots were developed in CDP-Star fluorimetry reagent RPN3690 and scanned with Vuego Scan (Brisa-620st) scanner. ImageMaster TotalLab v1.11.Ink software was used for quantitative analysis of the blots. Statistical analysis was carried out according to the pair t-test with SPSS software.

[2] = Body weight of rats on high nutrition diet (over-feeding obesity model); type: in vivo, Sprague-Dawley (SD) rats
Method: Healthy rats were fed with high nutrition diet for 5 weeks, with or without simultaneous peptide treatment (intramuscular 300 μg/kg/day). Rats on an ordinary diet with saline injection were used as negative control. After 5 weeks of treatment, injection was stopped and the same diet was maintained for another three weeks. Body weight data was collected at once per week interval. Behaviour of the rats was also observed. […] It is concluded that CMS015 at suitable dosage level can reversibly control obesity development induced by over-feeding.
Sprague-Dawley (SD) rats, weighing 145±10 g, were supplied by the Center of Experimental Animal of Guangzhou University of Traditional Chinese Medicine, PR China (certificate No.: 2000A019). Peptides were custom synthesized (of L-amino acids origin) by American Peptide Company, Inc., USA, and were diluted to 10 μg/ml in normal saline. The high and normal nutrition diets were prepared in compliance with the guideline for pre-clinical research of anti-obesity drug, issued by SDA (State Drug Administration), PR China^[1].
Healthy rats were randomized into the experiment, positive control, and negative control groups. 10 rats per group, half male and half female. The experiment group of rats was fed with high nutrition diet for 5 weeks with simultaneous intramuscular injection of 300 μg/kg/day peptide, once per day. Positive control group received the same high nutrition diet but placebo saline injection, while negative control group, used to proof successful establishment of obesity model, received normal nutrition diet and placebo saline injection. After 5 weeks treatment, injection was stopped and the same diet was maintained for another 3 weeks. The rats were weighed at once per week interval. Behaviour of the rats was also observed.
The data were presented as mean±standard deviation. Paired t test or single-factor ANOVA was used for inter and intra group comparison. Statistical significance cut-off was at P≦0.05.

PTTKTYFPHF [CMS001]
serum DHBV DNA titre upon termination of treatment ([1]; 50 μg/kg/day i.p. for 4 weeks, then one week observation): rebounded to a value with no statistical difference from that before treatment | DHBV DNA level (Mean ± Standard Deviation) ([1]; Day 0 (before treatment), CMS001 50 μg/kg/day i.p., lamivudine 50 mg/kg/day oral, saline 26 ± 12): 21 ± 18 10^3 units | DHBV DNA level (Mean ± Standard Deviation) ([1]; Day 7, CMS001 50 μg/kg/day i.p., lamivudine 50 mg/kg/day oral, saline 45 ± 31): 11 ± 13 10^3 units | DHBV DNA level (Mean ± Standard Deviation) ([1]; Day 14, CMS001 50 μg/kg/day i.p., lamivudine 50 mg/kg/day oral, saline 49 ± 23): 20 ± 18 10^3 units | DHBV DNA level (Mean ± Standard Deviation) ([1]; Day 21, CMS001 50 μg/kg/day i.p., lamivudine 50 mg/kg/day oral, saline 102 ± 66): 14 ± 14 10^3 units | DHBV DNA level (Mean ± Standard Deviation) ([1]; Day 28 (end of 4 weeks treatment), CMS001 50 μg/kg/day i.p., lamivudine 50 mg/kg/day oral, saline 60 ± 38): 5 ± 3* 10^3 units | DHBV DNA level (Mean ± Standard Deviation) ([1]; Day 35 (one week after termination of treatment), saline 50 ± 43): 18 ± 16 10^3 units

Pro Ser Ile Vat Gly Arg Pro Arg His Gln Gly Val Met (PSIVGRPRHQGVM; listed as Sus scrofa) [CMS015]
difference of the treatment and control groups upon termination of peptide treatment ([2]; 300 μg/kg/day i.m. for 5 weeks, then 3 weeks same diet without injection): gradually reduced and became statistically insignificant after three weeks | body weight ([2]; Female n = 5, Pre-treatment, positive control 133.6 ± 4.6): 129.2 ± 3.3 g | body weight ([2]; Female, Week 1, 300 μg/kg/day i.m., high nutrition diet, positive control 164.4 ± 8.7): 157.8 ± 8.3 g | body weight ([2]; Female, Week 2, 300 μg/kg/day i.m., high nutrition diet, positive control 188.0 ± 6.4): 176.0 ± 11.2 g | body weight ([2]; Female, Week 3, 300 μg/kg/day i.m., high nutrition diet, positive control 208.8 ± 8.2): 196.0 ± 10.5 g | body weight ([2]; Female, Week 4, 300 μg/kg/day i.m., high nutrition diet, positive control 227.2 ± 8.2): 212.0 ± 13.5 g | body weight ([2]; Female, Week 5, 300 μg/kg/day i.m., high nutrition diet, positive control 236.6 ± 10.9): 221.4 ± 13.2 g | body weight ([2]; Female, Week 6 (injection stopped after week 5), positive control 249.4 ± 16.3): 235.6 ± 16.3 g | body weight ([2]; Female, Week 7 (injection stopped after week 5), positive control 261.2 ± 13.4): 242.2 ± 18.8 g | body weight ([2]; Female, Week 8 (injection stopped after week 5), positive control 255.6 ± 11.5): 252.8 ± 22.5 g | body weight ([2]; Male n = 5, Pre-treatment, positive control 145.6 ± 13.6): 145.6 ± 8.5 g | body weight ([2]; Male, Week 1, 300 μg/kg/day i.m., high nutrition diet, positive control 194.4 ± 14.5): 183.8 ± 10.6 g | body weight ([2]; Male, Week 2, 300 μg/kg/day i.m., high nutrition diet, positive control 239.6 ± 13.4): 220.6 ± 12.2 g | body weight ([2]; Male, Week 3, 300 μg/kg/day i.m., high nutrition diet, positive control 265.0 ± 11.8): 239.0 ± 16.0 g | body weight ([2]; Male, Week 4, 300 μg/kg/day i.m., high nutrition diet, positive control 287.4 ± 17.7): 258.2 ± 18.1 g | body weight ([2]; Male, Week 5, 300 μg/kg/day i.m., high nutrition diet, positive control 299.4 ± 21.2): 268.8 ± 17.7 g | body weight ([2]; Male, Week 6 (injection stopped after week 5), positive control 333.4 ± 27.1): 299.4 ± 21.2 g | body weight ([2]; Male, Week 7 (injection stopped after week 5), positive control 349.2 ± 28.9): 310.4 ± 25.9 g | body weight ([2]; Male, Week 8 (injection stopped after week 5), positive control 374.4 ± 37.2): 337.4 ± 30.6 g
